{"source": "paper PMC7472781", "about": "“Inherited and Acquired Determinants of Hepatic CYP3A Activity in Humans” (Frontiers in Genetics, 2020)", "key": {"CYP3A [1]": {"tested_on": "CYP3A", "assay": "clinical", "conditions": "for AUC: 0.2 mg midazolam i.v., zero to infinity; for AUC420: dose to 420 min", "protocol": "Midazolam was administered as a 2 min intravenous infusion with a total dose of 0.2 mg. The phenotyping test with midazolam was performed on three different occasions with a time interval of at least 1 week and maximally 3 months.\nPharmacokinetic parameters were estimated by non-compartmental analyses using the WinNonlin software (Pharsight Corporation, Mountain View, United States). The AUC from zero to infinity (AUC), was calculated by the linear/log trapezoidal rule and using the terminal elimination rate constant (lambda z). […] Total plasma clearance (Cl) after administration of midazolam was calculated as the ratio dose over AUC. Time (tmax) and amount of maximum plasma concentration (Cmax) were given as measured and the terminal half-life (t1/2) was calculated as t1/2 = ln(2)/lambda z."}, "CYP3A [2]": {"tested_on": "CYP3A", "assay": "Within- and between-subject variance and genetic component (Kalow) of the 4 CYP3A biomarkers, three occasions", "protocol": "(§1) Predefined primary endpoint was midazolam AUC. All concentrations and pharmacokinetic parameters were determined on three independent occasions to compare intra- versus interindividual variation. […] In structural equation modeling of heritability and in the other multifactorial analyses the individual means from the measurements or parameters obtained on the three occasions were used. Using structural equation analysis, variation was separated into additive genetic (A), common environmental (C), and unique environmental (E) effects. The heritability is the proportion of the variance resulting from the genetic effect (A). In order to investigate the genetic, common environmental, and unique environmental effects of the different traits taken into account, the possible correlation between traits were fitted in multivariate ACE, AE, and CE biometrical models using the mcglm package for multivariate regression analysis in R. As an exploratory analysis, we computed the correlation between MZ and DZ twins based on an unstructured (equal mean and variance for MZ and DZ twins) model. In all models, the mean structure for each trait was specified as a linear function of the covariates age and sex."}, "CYP3A [3]": {"tested_on": "CYP3A", "assay": "Twin correlations and structural equation modeling (ACE, AE, CE) of heritability of the CYP3A biomarkers", "protocol": "as §1"}, "CYP3A [4]": {"tested_on": "CYP3A", "assay": "Multifactorial analysis of genetic and environmental effects on the CYP3A probe drugs and biomarkers", "conditions": "human, in vivo", "protocol": "DNA was isolated from whole venous blood by automated solid phase extraction with the EZ1^TM DNA Blood 350 μl Kit using the Bio-robot EZ1^TM (both Qiagen, Hilden, Germany). The CYP3A4^∗1b and ^∗22 alleles as well as the CYP3A5^∗1/^∗3 polymorphism were genotyped by DNA sequencing using fluorescence-labeled dideoxynucleotides and detection via Gene Mapper v3.7 Software® (Applied Biosystems®, Foster City, United States). Zygosity was assessed by analyzing variants in 23 polymorphic genes. Monozygosity was concluded when there were no differences regarding the polymorphisms in both siblings of one twin pair.\nas §1"}, "[5]": {"conditions": "ref Heizmann et al., 1983; cited from earlier work"}, "CYP3A [6]": {"tested_on": "CYP3A", "conditions": "cited from earlier work; for CYP3A activity increased: in vivo"}}, "note": "Marks after values point to notes of the source that are not given here."}
{"smiles": "Cc1ncc2n1-c1ccc(Cl)cc1C(c1ccccc1F)=NC2", "note": "[Midazolam, midazolam]", "values": [{"measurement": "Median AUC", "setting": "CYP3A [1]; *1/*1 and *1/*1B genotypes (n = 110)", "value": 439.1, "unit": "μg ∗ min/L"}, {"measurement": "AUC", "setting": "CYP3A [1]; DZ twins, value (range)", "value": "431.0 (287.8 – 640.7) μg * min/L"}, {"measurement": "AUC420", "setting": "CYP3A [1]; DZ twins, value (range)", "value": "354.8 (240.0 – 542.9) μg * min/L"}, {"measurement": "tmax", "setting": "CYP3A [1]; DZ twins, value (range)", "value": "10 (10 – 19) min"}, {"measurement": "AUC", "setting": "CYP3A [1]; MZ twins, value (range)", "value": "450.3 (290.3 – 897.4) μg * min/L"}, {"measurement": "AUC420", "setting": "CYP3A [1]; MZ twins, value (range)", "value": "378.6 (255.8 – 636.4) μg * min/L"}, {"measurement": "AUC, inter-individual range", "setting": "CYP3A [1]; all subjects", "value": "288 – 897.4 μg∗min/L"}, {"measurement": "Inter-individual variation in AUC", "setting": "CYP3A [1]; all subjects", "value": 3.1, "unit": "fold"}, {"measurement": "AUC, mean", "setting": "CYP3A [1]; all subjects, three occasions", "value": 464.0, "unit": "µg·min/L"}, {"measurement": "Median AUC", "setting": "CYP3A [1]; daily fruit consumption", "value": 425.4, "unit": "μg ∗ min/L"}, {"measurement": "Median AUC", "setting": "CYP3A [1]; heterozygous carriers of CYP3A4*22 (n = 4)", "value": 595.1, "unit": "μg ∗ min/L"}, {"measurement": "tmax", "setting": "CYP3A [1]; human, plasma, intravenous, 0.2 mg", "value": 0.167, "unit": "h"}, {"measurement": "clearance", "setting": "CYP3A [1]; human, plasma, intravenous, 0.2 mg, Cl, DZ twins, total plasma clearance, value (range)", "value": 480, "unit": "mL/min"}, {"measurement": "clearance", "setting": "CYP3A [1]; human, plasma, intravenous, 0.2 mg, Cl, DZ twins, value (range)", "value": 6.74, "unit": "mL/min/kg"}, {"measurement": "clearance", "setting": "CYP3A [1]; human, plasma, intravenous, 0.2 mg, Cl, MZ twins, total plasma clearance, value (range)", "value": 450, "unit": "mL/min"}, {"measurement": "clearance", "setting": "CYP3A [1]; human, plasma, intravenous, 0.2 mg, Cl, MZ twins, value (range)", "value": 6.8, "unit": "mL/min/kg"}, {"measurement": "clearance", "setting": "CYP3A [1]; human, plasma, intravenous, 0.2 mg, Clearance, summary in discussion (Table 2)", "value": "~500", "unit": "mL/min"}, {"measurement": "Cmax", "setting": "CYP3A [1]; human, plasma, intravenous, 0.2 mg, DZ twins, value (range)", "value": 3.76, "unit": "ng/mL"}, {"measurement": "Cmax", "setting": "CYP3A [1]; human, plasma, intravenous, 0.2 mg, MZ twins, value (range)", "value": 4.11, "unit": "ng/mL"}, {"measurement": "half-life", "setting": "CYP3A [1]; human, plasma, intravenous, 0.2 mg, Elimination half-life, summary in discussion (Table 2)", "value": "~2", "unit": "h"}, {"measurement": "half-life", "setting": "CYP3A [1]; human, plasma, intravenous, 0.2 mg, t1/2, DZ twins, terminal half-life, value (range)", "value": 3.08, "unit": "h"}, {"measurement": "half-life", "setting": "CYP3A [1]; human, plasma, intravenous, 0.2 mg, t1/2, MZ twins, terminal half-life, value (range)", "value": 2.72, "unit": "h"}, {"measurement": "AUC higher in male than in female subjects", "setting": "CYP3A [1]; median", "value": 8, "unit": "%"}, {"measurement": "Variation of plasma concentrations between subjects", "setting": "CYP3A [1]; one study day, all subjects", "value": "about 10 fold"}, {"measurement": "Median AUC", "setting": "CYP3A [1]; rare fruit consumption", "value": 519.4, "unit": "μg ∗ min/L"}, {"measurement": "Intra-individual (between-days) mean coefficient of variation", "setting": "CYP3A [1]; three occasions", "value": 11.3, "unit": "%"}, {"measurement": "Median AUC", "setting": "CYP3A [1]; thrice weekly fruit consumption", "value": 446.9, "unit": "μg ∗ min/L"}, {"measurement": "Median AUC", "setting": "CYP3A [1]; very rare fruit consumption", "value": 558.9, "unit": "μg ∗ min/L"}, {"measurement": "Genetic component", "setting": "CYP3A [2]; from intra- and inter-individual variation, independent of twin status, AUC, plasma concentration or 24-h urine Ae", "value": 0.612}, {"measurement": "Variation that may be due to genetic factors (from genetic component)", "setting": "CYP3A [2]; human, in vivo", "value": "up to 61%"}, {"measurement": "C^2 (common environmental effect)", "setting": "CYP3A [3]; ACE model", "value": "0.48 (0.24)*"}, {"measurement": "H^2 (heritability)", "setting": "CYP3A [3]; ACE model", "value": "0.15 (0.25)"}, {"measurement": "Variation attributed to common environmental factors", "setting": "CYP3A [3]; ACE model", "value": 48, "unit": "%"}, {"measurement": "Variation due to additive genetic (inherited) effects", "setting": "CYP3A [3]; ACE model", "value": 15, "unit": "%"}, {"measurement": "H^2 (heritability)", "setting": "CYP3A [3]; AE model", "value": "0.63 (0.06)*"}, {"measurement": "C^2 (common environmental effect)", "setting": "CYP3A [3]; CE model", "value": "0.60 (0.06)*"}, {"measurement": "rdz (correlation between DZ twins)", "setting": "CYP3A [3]; unstructured model", "value": "0.52 (0.13)*"}, {"measurement": "rmz (correlation between MZ twins)", "setting": "CYP3A [3]; unstructured model", "value": "0.66 (0.06)*"}, {"measurement": "Coefficient, CYP3A4*22", "setting": "CYP3A [4]", "value": 169.57}, {"measurement": "Coefficient, CYP3A5*3", "setting": "CYP3A [4]", "value": 32.33}, {"measurement": "Coefficient, age", "setting": "CYP3A [4]", "value": "−0.60"}, {"measurement": "Coefficient, sex", "setting": "CYP3A [4]", "value": 74.51}, {"measurement": "Coefficient, lean body weight", "setting": "CYP3A [4]; 0.2 mg", "value": "−7.29"}, {"measurement": "Coefficient, smoking status", "setting": "CYP3A [4]; 0.2 mg", "value": "−21.79"}, {"measurement": "Coefficient, oral contraceptives", "setting": "CYP3A [4]; po, 0.2 mg", "value": "−63.18"}, {"measurement": "Fraction of midazolam eliminated as 1-OH-midazolam", "setting": "[5]", "value": "Approximately 75%"}]}
{"smiles": "NC(=O)N1c2ccccc2C=Cc2ccccc21", "note": "[carbamazepin]", "values": [{"measurement": "CYP3A activity increased", "setting": "CYP3A [6]", "value": "up to 10 fold"}]}
{"smiles": "CCC(C)n1ncn(-c2ccc(N3CCN(c4ccc(OCC5COC(Cn6cncn6)(c6ccc(Cl)cc6Cl)O5)cc4)CC3)cc2)c1=O", "note": "(stereo not shown) [itraconazole]", "values": [{"measurement": "CYP3A activity reduced to", "setting": "CYP3A [6]; strong inhibitors, ref Kim et al., 2006, Greenblatt and Harmatz, 2015", "value": 10, "unit": "%"}]}
{"smiles": "CCC1(c2ccccc2)C(=O)NC(=O)NC1=O", "note": "[phenobarbital]", "values": [{"measurement": "CYP3A activity increased", "setting": "CYP3A [6]", "value": "up to 10 fold"}]}
